Reference: patent US7709513B2, “Benzooxazol-2-one derivatives as lipase and phospholipase inhibitors” (Sanofi-Aventis, priority 2005, dated 2010)

Biological target: T1, endothelial lipase (EL) (Homo sapiens, UniProt Q9Y5X9)
T1 construct: made in house; host or cells: recombinant cell lines (CHO, HEK293); concentrated conditioned medium used as enzyme solution
T1 sequence (Q9Y5X9 21-500): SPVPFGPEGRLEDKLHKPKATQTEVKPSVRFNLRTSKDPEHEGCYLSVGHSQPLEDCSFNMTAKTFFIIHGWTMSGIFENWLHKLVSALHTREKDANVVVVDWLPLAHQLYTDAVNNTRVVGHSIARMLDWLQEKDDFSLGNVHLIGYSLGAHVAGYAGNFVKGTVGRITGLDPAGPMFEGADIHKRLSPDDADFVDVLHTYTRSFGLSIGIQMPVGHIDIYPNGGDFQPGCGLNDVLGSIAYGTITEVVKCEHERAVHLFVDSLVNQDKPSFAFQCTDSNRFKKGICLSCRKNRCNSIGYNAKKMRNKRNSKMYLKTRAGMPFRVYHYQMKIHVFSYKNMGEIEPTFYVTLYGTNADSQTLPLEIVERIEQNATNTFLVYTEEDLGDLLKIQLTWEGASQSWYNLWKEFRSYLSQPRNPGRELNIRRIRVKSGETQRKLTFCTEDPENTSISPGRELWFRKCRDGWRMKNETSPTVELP
Test: Further EL inhibition assay
Type: biochemical
Conditions: Bodipy-labelled phospholipid substrate, 37° C., 90 minutes, HPTLC fluorescence readout; EL from conditioned medium of recombinant cell lines (CHO, HEK293)
Source text: EL is released as secretory protein in high concentration into cell culture medium (conditioned medium) by recombinant cell lines (CHO, HEK293). This is employed as enzyme solution after concentration.
The phospholipase-specific substrate 1,2-bis(4,4-difluoro-5,7-dimethyl-4-bora-3a,4a-diaza-s-indacene-3-undecanoyl)-sn-glycero-3-phosphocholine, (manufacturer Molecular Probes) is used to characterize the enzymatic activity of endothelial lipase and the effect of inhibitors. Hydrolysis of the A1 ester linkage of this phospholipid by the enzyme liberates the fluorescent dye Bodipy which can be detected after separation by thin-layer chromatography on an HPTLC plate (silica gel 60, Merck) or directly in the reaction vessel by measuring the fluorescence.
The substrate solution is prepared by dissolving 100 μg of 1,2-bis(4,4-difluoro-5,7-dimethyl-4-bora-3a,4a-diaza-s-indacene-3-undecanoyl)-sn-glycero-3-phospho-choline (manufacturer Molecular Probes) in 100 μl of DMSO and taking up in 2.4 mg of tripalmitin (Sigma) in 393 μl of chloroform which comprises 20 mg/ml DOP-choline (1,2-dioleoyl-sn-glycero-3-phosphocholine). 39.3 μl of this lipid mixture are transferred into a fresh reaction vessel, and the solvent is evaporated off. The lipid mixture is dissolved in 4 ml of 200 mM TRIS-HCl, 150 mM sodium chloride, pH=7.4, by sonication twice. The subsequent enzymic reaction takes place at 37° C. for 90 minutes. For this purpose, 20 μl of the substrate solution are incubated with 2 μl of inhibitor of appropriate concentration (dissolved in 10% DMSO, using 10% strength DMSO solution for control) and 2 μl of enzyme solution (conditioned medium). The 4 μl of the assay mixture are loaded onto an HPTLC plate (silica gel 60, Merck), and the liberated fluorescent dye is separated for detection with an eluent (diethyl ether:petroleum benzine:acetic acid [78:22:1]). After evaporation of the eluent, the plate is read in a fluorescence scanner. An increased liberation of the fluorescent dye in the uninhibited reaction is to be observed as a measure of the enzymic activity.

Structure (SMILES) | IC50
CCCCCCNC(=O)n1c(=O)oc2cc(C(C)=O)ccc21 [Example 3, 6-Acetyl-2-oxobenzooxazole-3-hexylcarboxamide] | 0.06 µM
O=C(NCc1ccccc1)n1c(=O)oc2ccc(Cl)cc21 [Example 7, 5-Chloro-2-oxobenzooxazole-3-benzylcarboxamide] | 0.23 µM
Cc1ccccc1CNC(=O)n1c(=O)oc2ccccc21 [Example 5, 2-Oxobenzooxazole-3-(2-methylbenzyl)carboxamide] | 0.95 µM

Next, values leading:

IC50 | Structure (SMILES)
0.51 µM | CC(=O)c1ccc2c(c1)oc(=O)n2C(=O)NCc1ccccc1C [Example 2, 6-Acetyl-2-oxobenzooxazole-3-(2-methylbenzyl)carboxamide]
0.13 µM | CC(=O)c1ccc2c(c1)oc(=O)n2C(=O)NCc1ccccc1 [Example 1, 6-Acetyl-2-oxobenzooxazole-3-benzylcarboxamide]
